Assay results published in patent US20250282796A1, “PENEM ANTIBACTERIALS AGAINST MYCOBACTERIAL PATHOGENS AND D,D- AND L,D TRANSPEPTIDASES” (The Johns Hopkins University, priority 2022, published 2025).
Converted amounts (≈) assume the structure as drawn. “Also recorded” adds a separate entry of the source. Like-named read-outs stand apart in the source and are kept apart here.

Legend:
Mab ATCC 19977 = assay: MIC broth microdilution assay against Mab ATCC 19977; format: cell-based, Mycobacteroides abscessus; conditions: for MIC: Mycobacteroides abscessus, read-out: MIC Mab ATCC 19977
Mtb H37Rv = assay: MIC broth microdilution assay against Mtb H37Rv (with and without clavulanate); format: cell-based, Mycobacterium tuberculosis; conditions: for MIC: Mycobacterium tuberculosis, H37RV, 336 h, read-out: MIC Mtb H37Rv; for increase of MIC relative to T405: Mtb H37Rv without clavulanate
DacB2 = biological target: T1, DacB2 (Mycobacterium tuberculosis, UniProt I6Y204); assay: DacB2 adduct formation and stability comparison by intact-protein UPLC-HRMS; format: binding; conditions: for DacB2 adduct formation: 20 μM drug, 1 h
T1 construct: made in house
T1 sequence (I6Y204 28-291): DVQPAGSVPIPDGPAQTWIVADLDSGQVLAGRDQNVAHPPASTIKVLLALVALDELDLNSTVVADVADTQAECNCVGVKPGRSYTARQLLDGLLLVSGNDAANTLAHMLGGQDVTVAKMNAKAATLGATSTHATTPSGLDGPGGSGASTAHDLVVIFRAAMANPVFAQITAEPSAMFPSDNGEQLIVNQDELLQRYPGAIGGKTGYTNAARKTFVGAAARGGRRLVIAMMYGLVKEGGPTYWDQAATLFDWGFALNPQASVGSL

LdtMt2 = biological target: T2, LdtMt2 (Mycobacterium tuberculosis, UniProt I6Y9J2); assay: LdtMt2 adduct formation by intact-protein UPLC-HRMS; format: binding; conditions: penem 20 μM, 1 h, 25 mM HEPES pH 7.0, 20° C.
T2 construct: made in house
T2 sequence (I6Y9J2 56-408): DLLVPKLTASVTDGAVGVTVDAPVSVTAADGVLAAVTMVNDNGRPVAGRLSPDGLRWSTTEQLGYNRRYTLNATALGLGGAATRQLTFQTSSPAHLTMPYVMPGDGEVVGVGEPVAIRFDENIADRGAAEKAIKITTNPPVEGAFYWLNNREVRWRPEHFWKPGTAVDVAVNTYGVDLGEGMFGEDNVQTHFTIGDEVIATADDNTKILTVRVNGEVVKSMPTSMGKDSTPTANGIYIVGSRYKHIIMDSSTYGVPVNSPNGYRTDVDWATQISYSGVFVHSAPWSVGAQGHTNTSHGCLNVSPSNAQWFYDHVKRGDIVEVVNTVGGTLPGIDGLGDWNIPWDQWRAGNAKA

[1] = ATCC19977, Middlebrook 7H9, 30° C., 72 h
[2] = without clavulanate, Middlebrook 7H9, 37° C., 14 d
[3] = 24 h after removal of free drug, 20° C.

## CCN1CC[C@@H](SC2=C(C(=O)O)N3C(=O)[C@H]([C@@H](C)O)[C@H]3S2)C1 [Compound T431, (5R,6S)-3-(((R)-1-ethylpyrrolidin-3-yl)thio)-6-((R)-1-hydroxyethyl)-7-oxo-4-thia-1-azabicyclo[3.2.0]hept-2-ene-2-carboxylic acid]
Mab ATCC 19977; [1]
  MIC: 4 µg/mL (≈ 11.6 µM)
Mtb H37Rv; [2]
  MIC: 4 µg/mL

## C[C@@H](O)[C@H]1C(=O)N2C(C(=O)O)=C(SC3CN(c4nc5ccccc5s4)C3)S[C@H]12 [Compound T423, (5R,6S)-3-((1-(benzo[d]thiazol-2-yl)azetidin-3-yl)thio)-6-((R)-1-hydroxyethyl)-7-oxo-4-thia-1-azabicyclo[3.2.0]hept-2-ene-2-carboxylic acid]
Mab ATCC 19977; [1]
  MIC: 64 µg/mL (≈ 147 µM)
Mtb H37Rv
  increase of MIC relative to T405: 16 fold
Mtb H37Rv; [2]
  MIC: 8 µg/mL
Mtb H37Rv; Middlebrook 7H9, 37° C., 14 d
  MIC Mtb H37Rv with Clavulanate (5 μg/ml): 2 µg/mL

## CCN1CC(SC2=C(C(=O)O)N3C(=O)[C@H]([C@@H](C)O)[C@H]3S2)C1 [Compound T421, (5R,6S)-3-((1-ethylazetidin-3-yl)thio)-6-((R)-1-hydroxyethyl)-7-oxo-4-thia-1-azabicyclo[3.2.0]hept-2-ene-2-carboxylic acid]
Mab ATCC 19977; [1]
  MIC: 4 µg/mL (≈ 12.1 µM)
Mtb H37Rv; [2]
  MIC: 1 µg/mL
Mtb H37Rv; Middlebrook 7H9, 37° C., 14 d
  MIC Mtb H37Rv with Clavulanate (5 μg/ml): 0.5 µg/mL

## C[C@@H](O)[C@H]1C(=O)N2C(C(=O)O)=C(S[C@@H]3CN[C@H](C(=O)N(C)C)C3)[C@H](C)[C@H]12 [Meropenem, reference compound]
DacB2; 20° C., pH 7.0
  DacB2 adduct formation: fully reacts with DacB2
DacB2; [3]
  DacB2 adduct stability (in words): stable after removal of drug for 24 h
DacB2; 24 h after removal of free drug, 20° C., listed as meropenem
  DacB2 adduct stability (in words): remained completely bound; also recorded: fully bound
Mtb H37Rv; [2]
  MIC: 8 µg/mL
  MIC Mtb H37Rv: 8 µg/mL
Mtb H37Rv; Middlebrook 7H9, 37° C., 14 d
  MIC Mtb H37Rv with Clavulanate (5 μg/ml): 0.5 µg/mL

## C[C@@H](O)[C@H]1C(=O)N2C(C(=O)O)=C(SC3CN(C4CCOCC4)C3)S[C@H]12 [Compound T430, (5R,6S)-6-((R)-1-hydroxyethyl)-7-oxo-3-((1-(tetrahydro-2H-pyran-4-yl)azetidin-3-yl)thio)-4-thia-1-azabicyclo[3.2.0]hept-2-ene-2-carboxylic acid]
Mab ATCC 19977; [1]
  MIC: 4 µg/mL (≈ 10.3 µM)
Mtb H37Rv; [2]
  MIC: 4 µg/mL

## C[C@@H](O)[C@H]1C(=O)N2C(C(=O)O)=C(SCC3CCNCC3)S[C@H]12 [Compound T429, (5R,6S)-6-((R)-1-hydroxyethyl)-7-oxo-3-((piperidin-4-ylmethyl)thio)-4-thia-1-azabicyclo[3.2.0]hept-2-ene-2-carboxylic acid]
Mab ATCC 19977; [1]
  MIC: 4 µg/mL (≈ 11.6 µM)
Mtb H37Rv; [2]
  MIC: 0.5 µg/mL
Mtb H37Rv; Middlebrook 7H9, 37° C., 14 d
  MIC Mtb H37Rv with Clavulanate (5 μg/ml): 0.25 µg/mL

## C[C@@H](O)[C@H]1C(=O)N2C(C(=O)O)=C(S[C@@H]3CCNC3)S[C@H]12 [Compound T425, (5R,6S)-6-((R)-1-hydroxyethyl)-7-oxo-3-(((R)-pyrrolidin-3-yl)thio)-4-thia-1-azabicyclo[3.2.0]hept-2-ene-2-carboxylic acid]
Mab ATCC 19977; Mab ATCC 19977
  MIC against Mab: 1 µg/mL (≈ 3.16 µM)
Mab ATCC 19977; [1]
  MIC: 2 µg/mL (≈ 6.32 µM)
Mtb H37Rv; [2]
  MIC: 0.5 µg/mL
Mtb H37Rv; Middlebrook 7H9, 37° C., 14 d
  MIC Mtb H37Rv with Clavulanate (5 μg/ml): 0.25 µg/mL

## C[C@@H](O)[C@H]1C(=O)N2C(C(=O)O)=C(SC3CCNCC3)S[C@H]12 [Compound T427, (5R,6S)-6-((R)-1-hydroxyethyl)-7-oxo-3-(piperidin-4-ylthio)-4-thia-1-azabicyclo[3.2.0]hept-2-ene-2-carboxylic acid]
Mab ATCC 19977; ATCC19977, 72 h
  MIC: 4 µg/mL (≈ 12.1 µM)
Mtb H37Rv
  increase of MIC relative to T405: two-fold
  MIC: 1 µg/mL
Mtb H37Rv; Middlebrook 7H9, 37° C., 14 d
  MIC Mtb H37Rv with Clavulanate (5 μg/ml): 0.5 µg/mL

## C[C@@H](O)[C@H]1C(=O)N2C(C(=O)O)=C(SC3CN(c4nc5ccccc5n4C)C3)S[C@H]12 [Compound T418, (5R,6S)-6-((R)-1-hydroxyethyl)-3-((1-(1-methyl-1H-benzo[d]imidazol-2-yl)azetidin-3-yl)thio)-7-oxo-4-thia-1-azabicyclo[3.2.0]hept-2-ene-2-carboxylic acid]
Mab ATCC 19977; [1]
  MIC: 64 µg/mL (≈ 148 µM)
Mtb H37Rv
  increase of MIC relative to T405: four-fold
Mtb H37Rv; [2]
  MIC: 2 µg/mL
Mtb H37Rv; Middlebrook 7H9, 37° C., 14 d
  MIC Mtb H37Rv with Clavulanate (5 μg/ml): 0.5 µg/mL

## C[C@@H](O)[C@H]1C(=O)N2C(C(=O)O)=C(SCC3CNC3)S[C@H]12 [Compound T428, (5R,6S)-3-((azetidin-3-ylmethyl)thio)-6-((R)-1-hydroxyethyl)-7-oxo-4-thia-1-azabicyclo[3.2.0]hept-2-ene-2-carboxylic acid]
DacB2; 20° C., pH 7.0
  DacB2 adduct formation: formed intact adducts
DacB2; [3]
  DacB2 adduct stability (in words): partially hydrolyzed
DacB2; 24 h after removal of free drug, 20° C., pH 7.0
  inhibitor retained on DacB2 (percent bound): 86%
DacB2; 24 h after washing away free drug
  loss of drug from DacB2 adduct: 14%
Mab ATCC 19977; [1]
  MIC: 8 µg/mL (≈ 25.3 µM)
LdtMt2
  covalent LdtMt2 adduct formed: formed a +86 Da LdtMt2 adduct; also recorded: fragmentation to a M+86 Da 3-hydroxybutyryl group
Mtb H37Rv; [2]
  MIC: 0.5 µg/mL
Mtb H37Rv; Middlebrook 7H9, 37° C., 14 d
  MIC Mtb H37Rv with Clavulanate (5 μg/ml): 0.25 µg/mL

## C[C@@H](O)[C@H]1C(=O)N2C(C(=O)O)=C(SCCN=CN)C[C@H]12 [Imipenem, reference compound]
Mab ATCC 19977; Middlebrook 7H9, 30° C., 72 h
  MIC Mab ATCC 19977: 8 µg/mL (≈ 26.7 µM)
Mab ATCC 19977; [1]
  MIC: 8 µg/mL (≈ 26.7 µM)

## C[C@@H](O)[C@H]1C(=O)N2C(C(=O)O)=C(SC3CN(C4=NCCCS4)C3)S[C@H]12 [Compound T420, (5R,6S)-3-((1-(5,6-dihydro-4H-1,3-thiazin-2-yl)azetidin-3-yl)thio)-6-((R)-1-hydroxyethyl)-7-oxo-4-thia-1-azabicyclo[3.2.0]hept-2-ene-2-carboxylic acid]
Mab ATCC 19977; [1]
  MIC: 16 µg/mL (≈ 39.8 µM)
Mtb H37Rv
  increase of MIC relative to T405: two dilutions
Mtb H37Rv; [2]
  MIC: 2 µg/mL
Mtb H37Rv; Middlebrook 7H9, 37° C., 14 d
  MIC Mtb H37Rv with Clavulanate (5 μg/ml): 0.5 µg/mL

## C[C@@H](O)[C@H]1C(=O)N2C(C(=O)O)=C(SC3CNC3)S[C@H]12 [Compound T422, (5R,6S)-3-(azctidin-3-ylthio)-6-((R)-1-hydroxyethyl)-7-oxo-4-thia-1-azabicyclo[3.2.0]hept-2-ene-2-carboxylic acid]
Mab ATCC 19977; Mab ATCC 19977
  weaker activity (MIC) relative to T405: 2 fold
Mab ATCC 19977; ATCC19977, 72 h
  MIC: 4 µg/mL (≈ 13.2 µM)
Mtb H37Rv
  MIC: 0.5 µg/mL
Mtb H37Rv; Middlebrook 7H9, 37° C., 14 d
  MIC Mtb H37Rv with Clavulanate (5 μg/ml): 0.5 µg/mL

## C[C@@H](O)[C@H]1C(=O)N2C(C(=O)O)=C(S[C@@H]3CCN(C4CCOCC4)C3)S[C@H]12 [Compound T432, (5R,6S)-6-((R)-1-hydroxyethyl)-7-oxo-3-(((R)-1-(tetrahydro-2H-pyran-4-yl)pyrrolidin-3-yl)thio)-4-thia-1-azabicyclo[3.2.0]hept-2-ene-2-carboxylic acid]
Mab ATCC 19977; [1]
  MIC: 4 µg/mL (≈ 9.99 µM)
Mtb H37Rv; [2]
  MIC: 4 µg/mL

## C[C@@H](O)[C@H]1C(=O)N2C(C(=O)O)=C(S[C@H]3CCNC3)S[C@H]12 [Compound T426, (5R,6S)-6-((R)-1-hydroxyethyl)-7-oxo-3-(((S)-pyrrolidin-3-yl)thio)-4-thia-1-azabicyclo[3.2.0]hept-2-ene-2-carboxylic acid]
DacB2; 20° C., pH 7.0
  DacB2 adduct formation: formed intact adducts
DacB2; [3]
  DacB2 adduct stability (in words): remained completely bound; also recorded: fully bound; also recorded: stable for at least 24 h after drug removal
Mab ATCC 19977; Mab ATCC 19977
  MIC against Mab: 1 µg/mL (≈ 3.16 µM)
Mab ATCC 19977; [1]
  MIC: 2 µg/mL (≈ 6.32 µM)
LdtMt2
  covalent LdtMt2 adduct formed: formed a +86 Da LdtMt2 adduct; also recorded: fragmentation to a M+86 Da 3-hydroxybutyryl group
Mtb H37Rv; [2]
  MIC: 0.5 µg/mL
Mtb H37Rv; Middlebrook 7H9, 37° C., 14 d
  MIC Mtb H37Rv with Clavulanate (5 μg/ml): 0.25 µg/mL
